Columns and labels:
[1] = test system: Helicobacter pylori avirulent strain 80A; test: Anti H. pylori Activity, Disc Diffusion Sensitivity Test, strain 80A; type: cell-based; conditions: 0.5 mg/disc; one range stated for both the strains (80A)
[2] = test system: Helicobacter pylori virulent strain 121 A; test: Anti H. pylori Activity, Disc Diffusion Sensitivity Test, strain 121A; type: cell-based; conditions: 0.5 mg/disc; one range stated for both the strains (121A)
[3] = target: T1, Gastric H^+, K^+-ATPase (Sus scrofa, UniProt P19156); test: Anti Gastric Proton Pump Activity Study; type: biochemical, pig; conditions: dose range of 0.3-3.0 mg/assay
T1 construct: These membranes are primarily enriched in tubulovescicular and apical membranes; from tissue; host or cells: pig stomach (gastric mucosa), tubulovesicular and apical membranes
Description: The applicant have selected one whole animal model—Cold Restraint Stress Ulcer in Rat (in vivo) to assess ulcer protection capacity of the extracts [Senay E. C. and Levine R. J., Proc Soc. Exp. Biol. Med. 124, 1221 (1967)], one isolated stomach model—Chambered Frog Gastric Mucosa (in organ) to assess anti HCl secretion potential [Durbin R. P. and Kircher A. B., Biochem. Biophys. Acta, 321, 553 (1973); Ray, T. K. and Tague L. R., Biochem. Pharmacol. 29, 2755 (1980); Ray et al., Proc. Natl. Acad. Sci. (USA) 79, 1448 (1982)], gastric proton pump inhibition model using pig gastric H^+, K^+-ATPase-rich apical and tubulovesicular membranes (in vitro) to examine enzyme inhibition [Bandopadhyay, S. Das, P. K., Wright, M. V., Nandi, J., Bhattacharyya, D. and Ray, T. K., J. Biol. Chem. 262, 5664 (1987)], and anti Helicobacter pylori activity assessment by Disc Diffusion Sensitivity Assay [Glupczynski, Y. In: Helicobacter pylori: techniques for clinical diagnosis & basic research, (Eds. Adrian Lee & Francis Megraud), W. B. Saunders Company Ltd., 1996, pp. 17-32].
3. […] K^+-stimulated activity, referred to as H^+, K^+-ATPase, was calculated as the difference between the activities obtained in presence of Mg^2+ plus K^+ and the basal activity (Mg^2+-ATPase) in presence of MG^2+ alone.

[4] = test system: frog gastric mucosa (histamine stimulated acid secretion); test: Frog Chamber Study: histamine-stimulated acid secretion of chambered frog gastric mucosa; set-up: species or system Rana hexadactyla; key to Comment (qualitative rank score): the rank score for both cimetidine and omeprazole (considered as 100%) were given as +8; conditions: for concentration enough to block almost complete acid secretion: 0.1-0.2 mM histamine; for Comment (qualitative rank score): cimetidine and omeprazole (100%) = +8
Description: Frog Chamber Study: The in organ experiments using the whole frog stomach to assess the anti-HCl secreting potential of extracts and their fractions were carried out employing Frog Chamber Model (for detail about the logic of the experiment and the information to be generated.
Frog Chamber Study: The study is based on the principle of ‘No Acid No Ulcer’. […] In this in vitro study, frog stomach is mounted in a plastic tube (Using Chamber Study). Employing histamine as the ulcerogen (final common mediator of all the physiological secretagogues), the rate and extent of proton secretion are quantitatively assessed as a function of the amount of herbal preparation and duration of treatment.
The experimental approach, as standardized through a series of experiments with more than 200 plant extracts, has been to measure, over time, (i) basal acid secretion, (ii) histamine-stimulated acid secretion, (iii) extract-induced (two doses) acid secretion, followed by (iv) extract-withdrawn acid secretion. For a particular stomach, after the basal secretion level is known, histamine is inserted from the nutrient side to see maximum acid secreting potential. Thereafter, an extract is inserted (first lower dose and then higher dose) from the nutrient side in presence of continuous supply of histamine to mimic ulcerative situation, followed by withdrawal of the extract by washing the nutrient side with histamine-containing nutrient medium. This latter phase is expected to generate information regarding the efficacy of the extract, upon its withdrawal, towards inhibiting the continuously existing acid secreting phase.
Experiments are carried out with in vitro preparations of gastric mucosa mounted over one end of a plastic tube (mounted area is 1.76 cm^2) with the mucosal surface facing out. The mounted tissue is placed vertically inside a 25-ml container. The nutrient solution is regular Frog Ringer solution and the luminal side (secretory side) is bathed in an unbuffered NaCl solution. The volumes of nutrient and mucosal solutions are adjusted in a way so as to be able to maintain constant hydrostatic pressure in the chamber throughout the duration of the experiment. Both solutions are slowly and continuously bubbled with O2 during the entire duration of the experiment. The mucosal solution is slowly and continuously stirred with a magnetic stirrer and collected at 15-min intervals in thoroughly washed clean vials.

T1 sequence (P19156 2-1034 limits assumed): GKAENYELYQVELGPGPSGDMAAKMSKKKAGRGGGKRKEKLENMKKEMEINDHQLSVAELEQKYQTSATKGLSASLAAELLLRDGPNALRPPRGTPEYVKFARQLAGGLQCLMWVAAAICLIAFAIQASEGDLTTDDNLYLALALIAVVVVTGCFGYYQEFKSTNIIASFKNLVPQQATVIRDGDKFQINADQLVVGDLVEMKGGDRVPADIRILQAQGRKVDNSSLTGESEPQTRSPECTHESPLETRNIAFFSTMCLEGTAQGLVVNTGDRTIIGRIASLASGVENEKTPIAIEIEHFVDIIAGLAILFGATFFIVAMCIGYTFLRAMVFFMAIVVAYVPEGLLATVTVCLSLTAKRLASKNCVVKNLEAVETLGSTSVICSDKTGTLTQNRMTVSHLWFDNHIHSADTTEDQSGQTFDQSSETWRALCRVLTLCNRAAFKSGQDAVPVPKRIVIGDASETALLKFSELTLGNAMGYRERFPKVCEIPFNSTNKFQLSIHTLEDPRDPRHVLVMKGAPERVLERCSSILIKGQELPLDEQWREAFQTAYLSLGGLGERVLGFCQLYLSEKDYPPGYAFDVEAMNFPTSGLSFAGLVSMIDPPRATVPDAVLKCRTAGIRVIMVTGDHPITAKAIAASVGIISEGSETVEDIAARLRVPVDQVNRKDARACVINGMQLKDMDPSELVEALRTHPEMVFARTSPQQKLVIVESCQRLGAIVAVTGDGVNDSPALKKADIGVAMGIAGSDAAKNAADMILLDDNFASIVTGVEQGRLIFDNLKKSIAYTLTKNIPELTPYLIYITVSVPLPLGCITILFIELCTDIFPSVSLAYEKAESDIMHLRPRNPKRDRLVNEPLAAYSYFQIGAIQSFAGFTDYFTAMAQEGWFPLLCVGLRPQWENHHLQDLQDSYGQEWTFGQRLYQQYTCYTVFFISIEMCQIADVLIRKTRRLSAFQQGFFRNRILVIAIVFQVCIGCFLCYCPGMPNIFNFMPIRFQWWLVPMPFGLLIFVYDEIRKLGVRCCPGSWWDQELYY
T1 sequence (P18434 whole entry partner): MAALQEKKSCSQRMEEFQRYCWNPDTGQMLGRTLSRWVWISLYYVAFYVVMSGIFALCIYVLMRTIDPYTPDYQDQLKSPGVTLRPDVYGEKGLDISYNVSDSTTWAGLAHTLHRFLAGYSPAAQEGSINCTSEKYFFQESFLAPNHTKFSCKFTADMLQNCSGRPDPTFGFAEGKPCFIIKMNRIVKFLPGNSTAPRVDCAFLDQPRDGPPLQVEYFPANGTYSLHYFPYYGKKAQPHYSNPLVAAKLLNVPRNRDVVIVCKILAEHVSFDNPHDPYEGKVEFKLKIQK

% inhibition of H^+, K^+-ATPase [3]	Structure (SMILES)	inhibition zone diameter [1]	inhibition zone diameter [2]	concentration enough to block almost complete acid secretion ([4]; added from secretory side) [mM]	Comment (qualitative rank score) [4]	concentration enough to block almost complete acid secretion ([4]; added from nutrient side) [mM]
	CC[C@H]1OC(=O)[C@H](C)[C@@H](O[C@H]2C[C@@](C)(OC)[C@@H](O)[C@H](C)O2)[C@H](C)[C@@H](O[C@@H]2O[C@H](C)C[C@H](N(C)C)[C@H]2O)[C@](C)(OC)C[C@@H](C)C(=O)[C@H](C)[C@@H](O)[C@]1(C)O [clarithromycin]	2.3-2.7 cm	2.3-2.7 cm			
50-100%	COc1ccc2[nH]c([S+]([O-])Cc3ncc(C)c(OC)c3C)nc2c1 (stereo not shown) [omeprazole]			1 to 10	+8	
	CN/C(=N/CCSCc1nc[nH]c1C)NC#N [cimetidine]				+8	0.1 to 0.2
